Assay: physchem
Conditions: octan-1-ol/water

Structure (SMILES) | logD (pH 7.4, LogD7.4) | logD (pH 7.4)
NC(=O)Nc1sc(-c2cc(F)cc(F)c2)cc1C(=O)N[C@H]1CCCNC1 | 2.18 | 
NS(=O)(=O)c1cc(C(=O)O)cc(N2CCCC2)c1Oc1ccccc1 [PIRETANIDE] | -0.94 | 
CS(=O)(=O)Nc1cc(Nc2nccc(Nc3c(Cl)ccc4c3OCO4)n2)cc(C(N)=O)c1 | 2.28 | 
CCCc1cc(OCc2ccccc2)cc(=O)n1Cc1ccc(-c2ccccc2-c2nn[nH]n2)cc1 | 2.4 | 
CN(C)CCCn1c2c(c3ccccc31)CCCCCC2 [IPRINDOLE] | 2.96 | 
CN[C@H]1CCN(C(=O)c2ccc(Nc3nccc(-c4cnc(C)n4C(C)C)n3)cc2)C1 | 1.22 | 
Cc1cc(=O)[nH]c2sc(C(=O)c3ccc(Br)cc3)c(N)c12 |  | 2.57
CCNc1nc(C#N)nc(Nc2ccccc2)n1 | 3.11 | 
Cc1ccc(-n2c(C)cc(C(=O)NS(=O)(=O)c3ccc(C)cc3)c2C)cc1 | 2.5 | 
Nc1ccn([C@@H]2O[C@H](CO)[C@@H](O)C2(F)F)c(=O)n1 [GEMCITABINE] | -1.5 | 
Cc1ccc(-c2ccc(N)nn2)cc1NC(=O)c1ccc(OCc2ccccn2)cc1 | 2.47 | 
Nc1cccc2c1C(=O)N(Cc1cccc(Cl)c1)C2=O | 3.18 | 
O=C(COCc1ccccc1)Nc1ccc2c(c1)C(=O)C(=O)c1ccccc1-2 | 3.21 | 
CCCCCSc1nc2nc(N)sc2c(=O)[nH]1 | 2.86 | 
Cn1ncc(Cl)c1-c1cc(C(=O)N[C@H](CN)Cc2cccc(F)c2)sc1Cl [AFURESERTIB] | 2.99 | 
COc1cc(N2CCN(C(C)=O)CC2)ccc1Nc1nccc(-c2cnc3ccccn23)n1 | 3 | 
CC(c1ccccc1)N1Cc2ccccc2C1=O (stereo unspecified) | 3 | 
NC(=O)C(NC(=O)C1(N)CCN(c2ncnc3[nH]ccc23)CC1)c1ccc(Cl)cc1 (stereo unspecified) | 2.2 | 
Nc1n[nH]c(Nc2ccccc2)n1 | 1.06 | 
C[C@H]1O[C@@H](n2cnc3c(N)nc(OC4CC5CC5C4)nc32)[C@H](O)[C@@H]1O (stereo partly specified) | 1.66 | 
Nc1cccc(CCc2ccc3cc[nH]c3c2)n1 | 2.8 | 
COc1cc(CNc2nc3ccccc3[nH]2)cc(OC)c1OC | 2.36 | 
Fc1ccc2cn[nH]c2c1 | 2.3 | 

Structure (SMILES) | logD (pH 7.4, LogD7.4) | logD (pH 7.4)
CC(C)Oc1ccc(S(C)(=O)=O)cc1C(=O)N1CCN(c2ccc(C(F)(F)F)cc2)CC1 | 3.33 | 
COC[C@H](C)Oc1cc(Oc2ccc(S(C)(=O)=O)cc2)cc(C(=O)Nc2ccc(C(=O)O)cn2)c1 | -0.41 | 
CCCCCC[C@H]1OC(=O)CNC(=O)[C@@H]([C@H](C)O)NC(=O)[C@H](CO)NC(=O)[C@H]([C@H](C)CC)NC(=O)[C@H](CC(C)C)N(C)C(=O)[C@@H]1C | 3.2 | 
Cc1cc(CN2Cc3ccccc3C2C(=O)Nc2ccc(Cl)cc2)ccc1OCC(=O)O (stereo unspecified) | 1.38 | 
CN1CCN(CCCOc2ccc(-c3cc(-c4ccc(F)cc4)no3)cc2)CC1 | 3.81 | 
COc1cccc([C@H](O)C2CCN(CCc3ccc(F)cc3)CC2)c1OC [VOLINANSERIN] | 1.7 | 
O=S(=O)(Cc1ccccc1)NCC(c1ccccc1)N1CCCCCC1 (stereo unspecified) | 2.83 | 
Cc1ccccc1Cn1ccn2c(=O)cc(N3CCOCC3)nc12 | 2.3 | 
CN(CCCc1ccccc1)S(=O)(=O)c1cc(C(=O)N2CCc3ccc(S(=O)(=O)NCCc4ccccc4)cc3C2)c(O)c(O)c1O | 0.75 | 
Cc1cn([C@H]2CCCN(S(=O)(=O)c3ccc(C(=O)O)c(Oc4ccc(Cl)c(Cl)c4)c3)C2)c(=O)[nH]c1=O | -0.87 | 
Nc1nnc(CCSCCc2nnc(N)s2)s1 | -0.1 | 
O=C(Oc1ccccc1O)c1cccc2ccccc12 | 4.4 | 
Cc1cc(C)n(-c2cccc(Cl)c2C#N)n1 |  | 3
CC[C@H](NC(=O)c1c([S+](C)[O-])c(-c2cccs2)nc2ccccc12)c1ccccc1 (stereo partly specified) | 3.56 | 
O=C(N[C@H]1Cc2ccccc2N(C[C@H](O)CO)C1=O)c1cc2cc(Cl)sc2[nH]1 | 3.27 | 
CN(C)CCCC(NC(=O)C1(N)CCN(c2ncnc3[nH]ccc23)CC1)c1ccc(Cl)cc1 (stereo unspecified) | 1.4 | 
Nc1cc2n[nH]c(=O)n2c2cc(-c3ccsc3)ccc12 | 3.18 | 
COc1ccc(-c2c(C)c3ccc(OC)cc3oc2=O)cc1 | 3.31 | 
CC[C@H](NC(=O)c1c([S+](C)[O-])c(-c2cccc(F)c2)nc2ccccc12)c1ccccc1 (stereo partly specified) | 3.14 | 
NNc1nc2ccccc2[nH]c1=O | 0.44 | 
O=C(N[C@@H]1Cc2ccccc2N(C[C@@H](O)CO)C1=O)c1cc2cc(Cl)sc2[nH]1 | 3.27 | 
O=C(Cc1ccccc1)Nc1nccs1 | 2.5 | 
O=c1cc(-c2ccccc2)oc2ccc(O)cc12 [6-HYDROXYFLAVONE] | 3.6 | 

Structure (SMILES) | logD (pH 7.4, LogD7.4) | logD (pH 7.4)
COc1ccc2nc(C)cc(-n3cc(CNC(C)=O)nn3)c2c1 | 1.6 | 
N#Cc1ccc(-c2cc(NC(N)=O)c(C(=O)N[C@H]3CCCNC3)s2)cc1 | 0.61 | 
O=C(COc1ccc(SCCCCCc2ccccc2)cc1)COc1ccc(C(=O)O)cc1 | 3.63 | 
NC(=O)c1sc(-c2ccsc2)cc1N | 2.23 | 
Cc1cc2n[nH]c(=O)n2c2cc(-c3ccco3)ccc12 | 2.07 | 
CC(=O)Nc1cccc(Nc2ncnc(N3CCC(OCc4ccc(OC(F)(F)F)cc4)CC3)n2)c1C | 4.4 | 
c1ccc(-c2ccc3ccccc3n2)cc1 [2-PHENYLQUINOLINE] | 4 | 
CC(=O)N1CCOc2nc(OCc3ccccc3)ccc21 | 2.4 | 
Cc1ccc(-c2[nH]cnc2C)cc1NC(=O)c1ccc(OCc2ccccn2)cc1 | 2.87 | 
Cc1ccc(NC(=O)c2cccc(C(F)(F)F)c2)cc1NC(=O)c1cccnc1 | 3.11 | 
CN(C)C(=O)N[C@H]1CC[C@@H](CCN2[C@@H]3CC[C@H]2C[C@@H](Oc2cccc(C(N)=O)c2)C3)CC1 |  | 0.22
CC(NC(=O)C1(N)CCN(c2ncnc3[nH]ccc23)CC1)c1ccccc1 (stereo unspecified) | 2.17 | 
Cc1cc2n[nH]c(=O)n2c2cc(-c3ccc(CO)cc3)ccc12 | 2.86 | 
COCCN(C)Cc1ccc(Nc2ncc3cc(-c4ccncc4)ccc3n2)cc1 | 2.65 | 
CN1CC=CCC(c2ccc(Cl)c(Cl)c2)C1 (stereo unspecified) |  | 3.32
CC(=O)O[C@@]12CO[C@@H]1C[C@H](O)[C@@]1(C)C(=O)[C@H](O)C3=C(C)[C@@H](OC(=O)[C@H](O)[C@@H](NC(=O)OC(C)(C)C)c4ccccc4)C[C@@](O)([C@@H](OC(=O)c4ccccc4)[C@H]21)C3(C)C [DOCETAXEL] | 3.4 | 
COc1cccc(C(=O)NCCCOc2cccc3ccc(N)nc23)c1 | 2.46 | 
Cc1cc(COC(=O)Nc2ccc(-c3ccccc3)n(CC(=O)NC(C(=O)C(F)(F)F)C(C)C)c2=O)cc(C)n1 (stereo unspecified) | 2.38 | 
C[C@@H]1CN(C(=O)OC(C)(C)C)CCN1c1ncc(OCc2ccc(S(C)(=O)=O)cc2)cn1 |  | 3.6
COc1cc2c(Nc3c(Cl)ccc4c3OCO4)ncnc2cc1OCCCN1CCCC1 | 1.62 | 
N#C/C(=C(/N)Sc1ccc(N)cc1)c1ccccc1C(F)(F)F | 3.3 | 
CNc1c(Br)cnc2nc(-c3ccc(OCCCN4CCOCC4)cc3)[nH]c12 | 2.96 | 
O=c1oc2c(O)cccc2cc1-c1ccc(O)cc1 | 2.8 | 

Structure (SMILES) | logD (pH 7.4, LogD7.4) | logD (pH 7.4)
C[C@H](CO)Nc1nc(SCc2cccc(Cl)c2)nc2nc(N)sc12 | 3.31 | 
NS(=O)(=O)Cc1noc2ccccc12 [ZONISAMIDE] | 0.55 | 
C[C@H]1O[C@@H](n2cnc3c(N)nc(Oc4ccccc4)nc32)[C@H](O)[C@@H]1O | 1.05 | 
C[C@@H]1CN(C(=O)OCC(F)(F)F)CCN1c1ncc(OCc2ccncc2C#N)cn1 | 3 | 
O=c1[nH]c(-c2ccccc2)nc2cc(Cl)ccc12 | 3.31 | 
CNC(=O)c1ccc(Oc2ccc(C#C[C@]3(O)CN4CCC3CC4)cc2)cc1 |  | 1.99
CC(C)(N)C(=O)N[C@H](Cc1c[nH]c2ccccc12)C(=O)N[C@H](Cc1c[nH]c2ccccc12)NC=O [MACIMORELIN] | 1 | 
Cc1ccc(C(=O)N2CCC(C(=O)c3ccc(Cl)cc3)CC2)cc1 | 3.79 | 
COc1cc(F)ccc1-c1cncc(CNC(=O)C2CCC2)c1 | 3.2 | 
COc1cc2ncnc(Nc3ccc(F)c(Cl)c3)c2cc1OCCCN1CCCC1 | 3.13 | 
Nc1nc(-c2ccc(O)cc2)cc(=O)[nH]1 | 1.05 | 
O=C(NCC12CC3CC(CC(C3)C1)C2)c1cccc(Cl)c1Cl | 4.37 | 
CCC(c1nc2ccsc2c(=O)n1Cc1ccc(C)cc1)N(CCCN)C(=O)c1ccc(C)cc1 (stereo unspecified) | 1.69 | 
CCCNC(=O)c1nnc2c(-c3cnc(OC)nc3OC)cccc2c1N |  | 3.26
Cn1cc(C#N)cc1-c1c2c(=O)n(C)c(=O)n(CC3CC3)c2nn1Cc1ccnc2ccc(Cl)cc12 | 3.67 | 
NC(=O)c1cccc(N[C@H]2C[C@H]3CC[C@@H](C2)N3Cc2ccccc2)c1 |  | 1.01
CCCCCCN1CC[C@]2(C)c3cc(O)ccc3CC1[C@@H]2C |  | 2.5
COc1ccc(-c2ccc3c(N4CCOC[C@@H]4C)nc(N4CCOC[C@@H]4C)nc3n2)cc1C(N)=O | 2.82 | 
Cn1nnc(-c2ccc(-c3ccc(N4C[C@H](COc5ccon5)OC4=O)cc3F)cn2)n1 |  | 1.24
Nc1cc2n[nH]c(=O)n2c2cc(-c3cccs3)ccc12 | 3.26 | 
CN(C)CC(O)COc1ccc(Nc2cc(N(CCC#N)c3cc(Cl)ccc3Cl)ncn2)cc1 (stereo unspecified) | 2.1 | 
COc1ccc(-c2nc3c(NCCCNC(=O)C4CCCC4)c(C(N)=O)cnc3[nH]2)cc1 | 3.13 | 
